Where a SMILES comes first, the peptide text is derived from it. [ ]: non-standard residue; d: D form. The star is where a group is joined. X1 = CC(=O)N[C@@H]1[C@@H](O[C@@H]2O[C@H](CO)[C@H](O)[C@H](O)[C@H]2O)[C@@H](O)[C@@H](CO)O[C@@H]1*; X2 = CC12CC3CC(C)(C1)CC(N*)(C3)C2; pGlu = O=C1CC[C@@H](C(=O)O)N1
Experiments:
NTS1 (HT-29 cells) = NTS1 (HT-29 cells) (Homo sapiens, UniProt P30989); experiment: cell-based
[1] = molecular target: neurotensin receptors (HT-29 cells) (Homo sapiens, UniProt P30989); format: cell-based
Chain of neurotensin receptors (HT-29 cells) (P30989 whole entry, looked up): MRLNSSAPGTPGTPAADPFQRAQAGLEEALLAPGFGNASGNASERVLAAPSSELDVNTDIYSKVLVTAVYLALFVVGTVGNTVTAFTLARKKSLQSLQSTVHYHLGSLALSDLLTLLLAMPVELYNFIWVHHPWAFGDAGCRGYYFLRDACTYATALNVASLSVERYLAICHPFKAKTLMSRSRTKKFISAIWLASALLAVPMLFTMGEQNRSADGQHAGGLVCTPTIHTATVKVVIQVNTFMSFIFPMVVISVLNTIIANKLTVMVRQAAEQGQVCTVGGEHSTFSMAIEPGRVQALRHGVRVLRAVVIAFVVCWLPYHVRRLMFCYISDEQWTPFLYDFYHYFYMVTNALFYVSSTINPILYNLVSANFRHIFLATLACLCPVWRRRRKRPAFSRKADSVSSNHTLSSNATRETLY

[2] = molecular target: cell-surface neurotensin receptors (HT-29 cells) (Homo sapiens, UniProt P30989); format: cell-based
Chain of cell-surface neurotensin receptors (HT-29 cells) (P30989 whole entry, looked up): as above

in vitro [3] = details: rat, serum
in vitro [4] = details: mouse, other tissue homogenate
motor impairment = details: mouse, in vivo

Chain of NTS1 (HT-29 cells) (P30989 whole entry, looked up): as above

Row | Structure (SMILES) | EC50 (NTS1 (HT-29 cells)) | DC50 [1] | DC50/EC50 [1] | levels of cell-surface neurotensin receptors after agonist exposure [2] | half-life (in vitro [3]) | half-life (in vitro [4]) | rotorod toxicity (motor impairment)
1 | CC[C@H](C)[C@H](NC(=O)[C@H](Cc1ccc(O)cc1)NC(=O)[C@@H]1CCCN1C(=O)[C@H](CCCCN)NC(=O)[C@H](CCCCN)NC(=O)[C@@H](NC(=O)[C@H](C)NC(=O)[C@H](CC(N)=O)NC(=O)[C@H](CO)NC(=O)CNC(=O)CNC(=O)[C@H](CCC(=O)O)NC(=O)[C@H](CCC(=O)O)NC(=O)[C@H](CO)NC(=O)[C@@H]1CCC(=O)N1)[C@@H](C)O[C@H]1O[C@H](CO)[C@H](O)[C@H](O[C@@H]2O[C@H](CO)[C@H](O)[C@H](O)[C@H]2O)[C@H]1NC(C)=O)C(=O)N[C@@H](CC(C)C)C(=O)O [Contulakin-G] ([pGlu]SEEGGSNAT(X1)KKPYIL-OH) | 32.4 ± 14.5 nM | 444 ± 41 nM | 14 | significantly higher levels | > 16 h | > 2.67 h | –
2 | CC[C@H](C)[C@H](NC(=O)[C@H](Cc1ccc(O)cc1)NC(=O)[C@@H]1CCCN1C(=O)[C@H](CCCCN)NC(=O)[C@H](CCCCN)NC(=O)[C@H](CCC(=O)NC12CC3CC(C)(CC(C)(C3)C1)C2)NC(=O)[C@H](CCCCN)NC(=O)[C@H](CC(N)=O)NC(=O)[C@H](CO)NC(=O)CNC(=O)CNC(=O)[C@H](CCC(=O)O)NC(=O)[C@H](CCC(=O)O)NC(=O)[C@H](CO)NC(=O)[C@@H]1CCC(=O)N1)C(=O)N[C@@H](CC(C)C)C(=O)O [memantine-Contulakin-G] ([pGlu]SEEGGSNKE(X2)KKPYIL-OH) | – | – | – | – | – | – | no rotorod toxicity
